Source: paper PMC5642494 (Oncotarget, 2017)

Assays:
Assay type in all cases: cell-based, human
[1] = tested on: MCF7 cells; assay: Annexin V/PI flow cytometry, MCF7; conditions: 3 DT (untreated 11.1%)
Protocol: (§1) Annexin V/PI staining was performed following the vendor’s specifications in MCF7 and MDA-MB-361 cells. […] Raw data were analyzed with FlowJo X software. Events were gated for debris exclusion and singlets selection. A minimum of 10,000 cells were analyzed per sample.

[2] = tested on: MDA-MB-361 cells; assay: Annexin V/PI flow cytometry, MDA-MB-361; conditions: 3 DT (untreated 45.7%)
Protocol: as §1

[3] = tested on: HR+ and HR- breast cancer cell lines; assay: Proliferation after washouts (EdU Click-iT) in breast cancer lines
Protocol: Images were SA-β-galactosidase immunocytochemical labeling taken by fluorescent microscopy using a Leica DMiL. […] SA-β-gal Cell samples were lysed after treatment with expression was determined using the Senescence Cells 100 μL lysis buffer and transferred to a 96-well plate. Histochemical Staining Kit (Sigma, CS0030) following 30 μL of each sample were transferred into deep well the vendor 's manual. Images were taken at 100x by bright plates using TECAN-EVO Workstation. Samples were field microscopy (Leica DMiL). treated for derivatization of the metabolites of interest and internal standards. For this, 50 μL of derivatization reagent Proliferation studies after washouts (EdU Click- and 80 μL of internal standard (IS, SupplementaryTable iT®) 1), were added with multidrop, plates were vortexed for 5 mins and let sit for one hour at 4 °C. The IS used were the Cells were plated onto poly-D-lysine D or 13C-labeled commercial analogues of nine of the ten coated 96-well plates at a density of 2,000-6,000 metabolites, prepared at 25 μM in water (Supplementary viable cells per well, and treated with abemaciblib or Table 1). The derivatization reagents (from Sigma), […] washout schedule shown on Supplementary Figure 1A. […] EdU Samples were analyzed by LC-MS/MS under the detection was performed using the Click-iT High Content conditions described below. […] Cell images were captured using a Cellomics Arrayscan VTI and analyzed Analysis of the derivatized-extracted samples with the Target Activation bio-application V.3 reading in 4 was carried out with an Agilent 6460 Triple Quadrupole channels at a magnification of 10X. […] The software relative levels and sub-cellular localization of EdU were for data collection and treatment was Agilent Masshunter determined through the respective intensities and locations Workstation. Mobile phases for chromatography were: of Alexa-488 fluorescence. mobile phase A: formic acid (5 mM) and ammonium formate (10 mM) in water; mobile phase B: acetonitrile. […]

CCN1CCN(Cc2ccc(Nc3ncc(F)c(-c4cc(F)c5nc(C)n(C(C)C)c5c4)n3)nc2)CC1 [abemaciclib, Abemaciclib]
cells positive for annexin V ([1]; 0.5 µM): 41.4% | cells positive for annexin V ([1]; 2 µM): 66.7% | cells positive for annexin V ([2]; 0.5 µM): 84.6% | cells positive for annexin V ([2]; 2 µM): 88.8% | DNA synthesis / proliferation as measured by EdU incorporation ([3]; HR+ versus HR- breast cancer cell lines, exposure 2 hr, 24 hr or 72 hrs followed by washout): preferentially reduced in HR+ compared to HR- cell lines | sensitivity of HR- cell lines with RB1 mutation or loss (EdU incorporation) ([3]; MDA-MB-468, BT549, BT20, HCC1937, HCC70): insensitive
